Measured values from paper PMC9228468, “Relevance of Therapeutic Drug Monitoring of Tyrosine Kinase Inhibitors in Routine Clinical Practice: A Pilot Study” (Pharmaceutics, 2022).

Experiments:
[1] = Therapeutic drug monitoring: plasma levels by HPLC-UV, dose-normalized plasma concentrations; assay type: in vivo, human
Experimental: (§1) Monitoring was carried out in all cases after at least fifteen days from the start of treatment, when the plasma levels of the drug were considered at steady state. Blood samples were extracted just before ingestion of the tablet/s and at different times after ingestion. The drug was administered in the fasted state and patients were told they could eat food after the second blood sample was drawn. Sampling times, which are defined for each drug in Table 1, were selected based on the optimal sampling theory and pharmacokinetic models previously published in the scientific literature. […] The total blood volume extracted was between 4 and 5 mL for each sample. All samples were centrifuged after extraction at 3500 r.p.m. for 10 min at room temperature and the plasma obtained was frozen at −80 °C until bioanalysis.
Bioanalysis was carried out using high-performance liquid chromatography (HPLC) coupled with ultraviolet (UV) detection.
As the stationary phase, an Ultrabase® C18 chromatographic column, 4.6 mm in diameter by 150 mm in length, made of stainless steel and filled with a C18 reversed-phase siliceous substrate with a particle size of 5 µm, was used. A mixture of 40% of 0.02 M ammonium acetate, pH = 7, and 60% acetonitrile: methanol at a ratio of 70:30 (v/v) was used as the mobile phase. The linearity of the technique included a concentration range of 0.05–7.5 µg/mL. The limit of quantification was 0.5 µg/mL. Solid–liquid extraction was used and the analysis time was 9 min.
The stationary phase used was an Ultrabase® C18 chromatographic column, 4.6 mm in diameter by 150 mm in length, made of stainless steel and filled with a C18 reversed-phase siliceous substrate with a particle size of 5 µm. The mobile phase used was a 40% mixture of 0.02 M ammonium acetate, pH = 7, and 60% acetonitrile: methanol at a ratio of 70:30 (v/v). The linearity of the technique included a concentration range of 0.05–5 µg/mL. The limit of quantification was 0.5 µg/mL. Solid–liquid extraction was used and the analysis time was 10 min.
(§2) The stationary phase used was a Kromasil® C18 chromatographic column, 4.6 mm in diameter by 150 mm in length, made of stainless steel and filled with a C18 reversed-phase siliceous substrate with a particle size of 5 µm. The mobile phase used was a mixture of acetonitrile and 0.02 M ammonium acetate, pH = 3.5, at a ratio of 53:47 (v/v). The linearity of the technique included a concentration range of 0.02–10 µg/mL. The limit of quantification was 0.2 µg/mL. Liquid–liquid extraction was used and the analysis time was 12 min [51].
as §2, with “0.1–20” for “0.02–10”, “0.1” for “0.2”, “[52].” for “[51].”
The program was compiled with the DIGITAL Visual Fortran version 6.6C program. The graphics were made with the S-Plus 6.1 Professional Edition program for Windows (Insightful, Seattle, WA, USA). A one-compartment pharmacokinetic model with first-order absorption and elimination kinetics was selected to describe erlotinib plasma concentrations, as performed previously by other authors. The fixed-effect parameters estimated by the model were V (volume of distribution, L), CL (plasma clearance, L/h) and Ka (absorption constant). The model included plasma ALT concentration and age as covariates in CL, and weight in V.
The model was parameterized in terms of D1 (zero-order absorption duration), V and CL, and included the plasma concentration of α 1-acid glycoprotein as a covariate in CL. […]

[2] = cited from earlier work
[3] = Survival analysis (Kaplan-Meier, PFS and OS); assay type: in vivo, human; details: real-world cancer patients with TDM
Experimental: (§3) Patients’ medical records were reviewed with the aim of studying all possible factors related to the patient and the medication that may influence the evolution of the plasma concentrations of TKIs. Sociodemographic and anthropometric, pharmacological treatment, clinical, toxicity and therapeutic drug monitoring data were collected. Treatment response was determined according to the […]. Adverse events were recorded by grade according to the Common Terminology Criteria for Adverse Events version 3.0 (CTCAE v 3.0).
To assess the relationship between treatments protocols and disease progression or mortality, a Kaplan–Meier survival curve was plotted.

[4] = Groups of patients according to exposure and toxicity; assay type: in vivo, human; details: for % patients, Group 1 / % patients, Group 3: Drug concentrations above target level: No; for % patients, Group 1 / % patients, Group 2: Toxicities: No; for % patients, Group 3 / % patients, Group 4: Toxicities: Yes; for % patients, Group 2 / % patients, Group 4: Drug concentrations above target level: Yes
[5] = Incidence of toxicity (CTCAE grades), first vs last monitored cycle; assay type: in vivo, human; details: for Patients with toxicity: at start of treatment; for Toxicity: RI G1: renal insufficiency grade 1 (IR G1 for sorafenib); for Toxicity: RI G2: renal insufficiency grade 2
Experimental: as §3
To compare the variation in categorical variables (rash, diarrhea, fatigue, abdominal pain, hypertension, and mucositis) between the first and the last monitored cycle, the non-parametric chi-square test was performed.

[6] = cited from earlier work; remark: listed apart in the source
[7] = TDM-guided dose adjustment recommendations per monitored cycle; assay type: in vivo, human; details: for monitored cycles with recommendation to decrease the dose: concentrations above therapeutic range; for monitored cycles with recommendation to increase the prescribed dose: concentrations below target therapeutic range; for monitored cycles with recommendation to maintain the current dose: concentrations within therapeutic range; for monitored cycles with recommendation to suspend/suppress the drug: in vivo
Experimental: Patients included in this study received drugs at doses previously established by their doctors, according to data sheet indications and clinical judgment. In all cases, drug dose was prescribed before the patient enrolled onto this study and was not affected by this study prior to enrollment.
as §1

[8] = last monitored cycle, after TDM and dose adjustments
[9] = phase II study of 57 NSCLC patients
[10] = last monitored cycle, after TDM and dose adjustment

| SMILES | mean interpatient variability in dose-normalized plasma concentrations (CV) ([1]; first monitored cycle) | mean interpatient variability in dose-normalized plasma concentrations (CV) [1, 8] | Overall Survival, Median [3] | Progression-Free Survival, Median [3] | % patients, Group 1 [4] | % patients, Group 3 [4] | % patients, Group 2 [4] | % patients, Group 4 [4] | Patients with toxicity [5] | Toxicity: Anemia G1 ([5]; in vivo) | Toxicity: Anemia G2 ([5]; in vivo) | Toxicity: Diarrhea G2 ([5]; in vivo) | Toxicity: Mucositis G3 ([5]; in vivo) | Toxicity: Skin rash G1 ([5]; in vivo) | Toxicity: Skin rash G3 ([5]; in vivo) | patients who developed toxicity at the start of treatment ([5]; in vivo) | Toxicity: RI G1 [5] | monitored cycles with recommendation to decrease the dose [7] | monitored cycles with recommendation to increase the prescribed dose [7] | monitored cycles with recommendation to suspend/suppress the drug [7] | also measured |
| --- | --- | --- | --- | --- | --- | --- | --- | --- | --- | --- | --- | --- | --- | --- | --- | --- | --- | --- | --- | --- | --- |
| C#Cc1cccc(Nc2ncnc3cc(OCCOC)c(OCCOC)cc23)c1 [Erlotinib, erlotinib] | 46.2% | 44% | 32 Months | 8 Months | 18.2% | 22.7% | 13.6% | 45.5% | 9 (45.4) n. (%) | 4 (18.1) n. (%) | 2 (9.1) n. (%) | 3 (13.6) n. (%) | 1 (4.5) n. (%) | 5 (22.7) n. (%) | 3 (13.6) n. (%) | 45.4% | 9 (45.4) n. (%) | 3.6% | 38.2% | 3.6% | OS ([2]; 26 NSCLC patients): 16.9 months; PFS ([2]; 26 NSCLC patients): 6.3 months; OS of patients with grade 1 rash [2, 9]: 8.5 months; OS of patients with grade 2 rash [2, 9]: 19.6 months; OS of patients without rash [2, 9]: 1.5 months; patients with grade 2 skin rash ([5]; first monitored cycle): 13.6%; patients with grade 3 mucositis ([5]; first monitored cycle): 4.5%; patients with grade 3 thrombocytopenia ([5]; first monitored cycle): 4.5%; Toxicity: Fatigue G2 ([5]; in vivo): 2 (9.1) n. (%); Toxicity: Skin rash G2 ([5]; in vivo): 3 (13.6) n. (%); analytical parameters related to toxicity and defined toxicities, first vs last monitored cycle ([5]; in vivo): no significant differences; patients with grade 2 skin rash ([5]; last monitored cycle): 14.3%; patients with grade 3 mucositis ([5]; last monitored cycle): 0%; patients with grade 3 rash ([5]; last monitored cycle): 7.1%; patients with grade 3 thrombocytopenia ([5]; last monitored cycle): 0%; Toxicity: RI G2 [5]: 4 (18.1) n. (%); Toxicity: Thromb. G3 ([5]; trombopenia grade 3): 1 (4.5) n. (%); fraction of a single dose eliminated in the urine [6]: 9%; patients with plasma concentrations below the target ([6]; target 500 mg/L, lung cancer patients): 11.1%; monitored cycles with recommendation to maintain the current dose [7]: 54.5% |
| Cc1ccc(NC(=O)c2ccc(CN3CCN(C)CC3)cc2)cc1Nc1nccc(-c2cccnc2)n1 [Imatinib, imatinib] | 48.91% | 50.84% | – | – | – | – | – | – | – | – | – | – | – | – | – | – | – | – | – | – | mean interpatient variability in dose-normalized plasma concentrations (CV) ([1]; first monitored cycle, listed as imatinib): 48.9%; mean interpatient variability in dose-normalized plasma concentrations (CV) ([1]; last monitored cycle, after TDM and dose adjustments, listed as imatinib): 50.8% |
| CS(=O)(=O)CCNCc1ccc(-c2ccc3ncnc(Nc4ccc(OCc5cccc(F)c5)c(Cl)c4)c3c2)o1 [Lapatinib, lapatinib] | 60.7% | 56% | 46 Months | 8 Months | 6.2% | 18.7% | 6.2% | 69.5% | 12 (75.0) n. (%) | 3 (18.7) n. (%) | 2 (12.5) n. (%) | 1 (6.2) n. (%) | 1 (6.2) n. (%) | 1 (6.2) n. (%) | 1 (6.2) n. (%) | 75% | 6 (37.5) n. (%) | 8.6% | 14.3% | 8.6% | toxicities detected ([5]; after performing TDM): 5 cases; toxicities detected ([5]; first monitored cycle): 25 cases; reduction of toxicity events by TDM ([5]; first vs last monitored cycle): 80%; Toxicity: Anemia G3 ([5]; in vivo): 1 (6.2) n. (%); Toxicity: Diarrhea G1 ([5]; in vivo): 2 (12.5) n. (%); Toxicity: Diarrhea G3 ([5]; in vivo): 1 (6.2) n. (%); Toxicity: Pain ([5]; in vivo): 2 (12.5) n. (%); analytical parameters related to toxicity and defined toxicities, first vs last monitored cycle ([5]; in vivo): no significant differences; Toxicity: Neutr. G3 ([5]; neutropenia grade 3): 2 (12.5) n. (%); Toxicity: RI G2 [5]: 2 (12.5) n. (%); increase in AUC with high-fat meals [6]: more than 3 fold; interpatient variability in exposure, AUC [6]: 42–117%; interpatient variability in exposure, Ctrough [6]: 55–97%; t1/2 in severe liver failure relative to normal liver function [6]: 3 fold; increase of mean AUC in patients with severe liver failure ([6]; vs normal liver function): more than 60%; monitored cycles with recommendation to maintain the current dose [7]: 68.6% |
| CNC(=O)c1cc(Oc2ccc(NC(=O)Nc3ccc(Cl)c(C(F)(F)F)c3)cc2)ccn1 [Sorafenib, sorafenib] | 89.7% | 72.5% | 9 Months | 9 Months | – | 9.1% | 54.4% | 9.1% | – | 2 (18.2) n. (%) | 1 (9.1) n. (%) | 1 (9.1) n. (%) | – | – | – | 63.3% | 2 (18.2) n. (%) | 6.9% | 17.2% | 3.4% | Toxicity: Abdominal pain ([5]; in vivo): 2 (18.2) n. (%); patients with anemia [5, 10]: 50%; patients with grade 3 neutropenia [5, 10]: 25%; Toxicity: Thromb. G1 ([5]; trombopenia grade 1): 1 (9.1) n. (%); dose above which gastrointestinal absorption saturates [6]: greater than 800 mg; variability in exposure between patients, AUC [6]: 12–117%; variability in exposure between patients, apparent oral Cl [6]: 13–80% |
| Cc1cn(-c2cc(NC(=O)c3ccc(C)c(Nc4nccc(-c5cccnc5)n4)c3)cc(C(F)(F)F)c2)cn1 [nilotinib] | – | – | – | – | – | – | – | – | – | – | – | – | – | – | – | – | – | – | – | – | increase in AUC with high-fat meals [6]: up to 80% |
| Cc1ccc(Nc2nccc(N(C)c3ccc4c(C)n(C)nc4c3)n2)cc1S(N)(=O)=O [pazopanib] | – | – | – | – | – | – | – | – | – | – | – | – | – | – | – | – | – | – | – | – | AUC when administered with food compared to fasted state [6]: doubled; dose above which plasma AUC does not increase ([6]; solubility limitations in the digestive tract): greater than 800 mg |
